Values quoted from earlier work as cited in patent US9643990B2, “Non-caloric sweeteners and methods for synthesizing” (Conagen Inc., priority 2014, dated 2017).

Details: background statement, no method given

| Molecule | sweetness relative to sucrose |
| --- | --- |
| Rebaudioside C | 40-60 times sweeter than sucrose |
| C=C1C[C@@]23CC[C@H]4[C@@](C)(CCC[C@@]4(C)C(=O)O[C@@H]4O[C@H](CO)[C@@H](O)[C@H](O)[C@H]4O)[C@@H]2CC[C@]1(O[C@@H]1O[C@H](CO)[C@@H](O)[C@H](O)[C@H]1O[C@@H]1O[C@H](CO)[C@@H](O)[C@H](O)[C@H]1O)C3 [stevioside, Stevioside] | 100-150 times sweeter than sucrose |
| Dulcoside A | about 30 times sweeter than sucrose |
